Assay results reported in patent US6936634B2, “Ruthenium (II) compounds for use in the therapy of cancer” (The University Court, The University of Edinburgh (UK), priority 2000, dated 2005).
Like-named read-outs stand apart in the source and are kept apart here.

Assays:
Assay type in all cases: cell-based
[1] = system: A2780 ovarian cancer cell line; assay: Cell growth inhibition, A2780 ovarian cancer cell line
Method: (§1) The compounds are tested on 24 -well trays. Cells growing in a flask are harvested just before they become confluent, counted using a haemocytometer and diluted down with media to a concentration of 1×10^4 cells per ml. The cells are then seeded in the 24 -well trays at a density of […] (i.e. 1 ml of the diluted cell suspension is added to each well). The cells are then left to plate down and grow for 72 hours before adding the compounds of the invention.
(§2) The Ru complexes are weighed out and made up to a concentration of is 1 mg/ml with deionised water then sonicated, until they go into solution. The appropriate volume of the Ru solution is added to 5 ml of media to make it up to a concentration of 100 μM for each drug. This 100 μM solution is then serially diluted to make up the 10 μM, 1 μM and 0.1 μM solutions.
(§3) The media is removed from the cells and replaced with 1 ml of the media dosed with drug. Each concentration is done in duplicate. A set of control wells are left on each plate, containing media without drug.
(§4) The cells are left exposed to the drugs for 24 hours and then washed with phosphate buffered saline before fresh media is added.
(§5) They are allowed to grow on for a further 3 days before being counted using a Coulter counter.
(§6) • Media is removed and 1 ml of PBS is added to the cells. • 250 μl of trypsin is added and cells left in incubator for a few minutes to allow the monolayers to detach. • Once trypsinised, 250 μl of media is added to each well to neutralise the trypsin. 200 μl of this suspension is added to 10 ml of NaCl for counting. 2. Results
Using the above protocol, a number of compounds of the invention were tested on A2780 ovarian cancer cell line.

[2] = system: A2780 cis, variant of A2780 showing resistance to cis-platin; assay: Cell growth inhibition, A2780 cis (cis-platin resistant variant); conditions: 24 hours exposure
Method: as §1, §2, §3, §4, §5, §6
(§7) The experiments were repeated to investigate the effect of the compounds of the invention on drag-resistant variants of the A2780 cell line.

[3] = system: A2780 AD, variant of A2780 showing resistance to adriomycin; assay: Cell growth inhibition, A2780 AD (adriomycin resistant variant); conditions: multidrug resistant, over expresses p glycoprotein, 24 hours exposure
Method: as §1, §2, §3, §4, §5, §6, §7

[4] = A2780, repeated experiments with drug-resistant variants, 24 hours exposure, read-out: IC50 A2780
[5] = A2780 ovarian cancer cell line, 24 hours drug exposure, counted after a further 3 days, first experiment, read-out: IC50

Molecule | IC50 [1, 4] | IC50 [1, 5] | IC50 [2] | IC50 [3]
C1=CCC2=C(C1)Cc1ccccc1C2.F[P-](F)(F)(F)(F)F.NCCN.[Cl][Ru+] [Example 1, [(η^6-C14H14)RuCl(en)]^+PF6] | 0.5 µM | 0.5 µM | 1000 nM | 328 µM
C1=CCC2=C(C1)Cc1ccccc1C2.[Cl][Ru][Cl] [Example 2, [(η^6-C14H14)RuCl2(DMSO)]] | 94 µM | 94 µM | 493000 nM | 4 µM
C1=CCC2=C(C1)Cc1ccccc1C2.CC#N.CC#N.F[P-](F)(F)(F)(F)F.[Cl][Ru+] [Example 3, [(η^6-C14H14)RuCl(CH3CN)2]^+PF6^−] | 116 µM | 177 µM | 2000 nM | 2 µM
F[P-](F)(F)(F)(F)F.NCCN.[Cl][Ru+].c1ccc2c(c1)Cc1ccccc1C2 [Example 4, [η^6-C14H12)RuCl(en)]^+PF6−] | 2 µM | 0.3 µM | 16000 nM | 104 µM
[Cl][Ru][Cl].c1ccc2c(c1)Cc1ccccc1C2 [Example 5, [(η^6-C14H12)RuCl2(DMSO)]] | 126 µM | 68 µM | 2000 nM | 5 µM
CC#N.CC#N.F[P-](F)(F)(F)(F)F.[Cl][Ru+].c1ccc2c(c1)Cc1ccccc1C2 [Example 6, [(η^6-C14H12)RuCl(CH3CN)2]^+PF6^−] | 192 µM | 315 µM | 2000 nM | 0.9 µM
{[(η^6-C14H14)RuCl]2[H2N(CH2)2NH(CH2)6NH(CH2)2NH2−N,N′N″,N′″]}^2+.2PF6^− [Example 7] |  | 6 µM |  | 
